Converted amounts (≈) assume the structure as drawn. Like-named read-outs stand apart in the source and are kept apart here.
Experiments:
[1] = test system: Staphylococcus aureus ATCC 29213, CCM 4223; test: Antibacterial microdilution broth method, S. aureus; type: cell-based
[2] = test system: Staphylococcus epidermidis H 6966/08; test: Antibacterial microdilution broth method, S. epidermidis; type: cell-based; settings: Staphylococcus epidermidis, H6966/08, S. epidermidis
[3] = test system: Enterococcus faecalis ATCC 29212, CCM 4224; test: Antibacterial microdilution broth method, E. faecalis; type: cell-based; settings: Enterococcus faecalis
[4] = test system: Escherichia coli ATCC 25922, CCM 3954; test: Antibacterial microdilution broth method, E. coli; type: cell-based; settings: Escherichia coli
[5] = test system: Pseudomonas aeruginosa ATCC 27853, CCM 3955; test: Antibacterial microdilution broth method, P. aeruginosa; type: cell-based; settings: Pseudomonas aeruginosa, P. aeruginosa
[6] = test system: Mycobacterium tuberculosis H37Rv (331/88); test: Antimycobacterial micromethod in Šula's medium, M. tuberculosis; type: cell-based
[7] = test system: Mycobacterium avium 330/88; test: Antimycobacterial micromethod in Šula's medium, M. avium; type: cell-based
[8] = test system: Mycobacterium kansasii 235/80; test: Antimycobacterial micromethod in Šula's medium, M. kansasii 235/80; type: cell-based
[9] = test system: M. kansasii 6509/96 (clinical isolate); test: Antimycobacterial micromethod in Šula's medium, M. kansasii 6509/96; type: cell-based; settings: Mycobacterium kansasii
Candida krusei E28 = test: Antifungal microdilution broth method, C. krusei; type: cell-based; settings: Pichia kudriavzevii
Method in brief: (§1)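 Compounds were taken up in DMSO, then serially diluted twofold into MOPS-buffered (pH 7.0) RPMI-1640 containing L-glutamine and 2% glucose. Fungi were tested by microdilution following modified EUCAST guidance, and MICs were assessed by eye.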

Candida glabrata 20/I = test: Antifungal microdilution broth method, C. glabrata; type: cell-based; settings: Nakaseomyces glabratus
Method in brief: as §1

Trichosporon asahii 1188 = test: Antifungal microdilution broth method, T. asahii; type: cell-based
Method in brief: as §1

[10] = test system: Aspergillus fumigatus 231; test: Antifungal microdilution broth method, A. fumigatus; type: cell-based
Method in brief: as §1

[11] = test system: Lichtheimia corymbifera 272; test: Antifungal microdilution broth method, L. corymbifera; type: cell-based
Method in brief: as §1

[12] = test system: Trichophyton interdigitale 445; test: Antifungal microdilution broth method, T. interdigitale; type: cell-based
Method in brief: as §1

[13] = test system: Klebsiella pneumoniae D 11750/08; test: Antibacterial microdilution broth method, K. pneumoniae; settings: K. pneumoniae D 11750/08; for MIC KP 24 h: 24 h incubation; for MIC KP 48 h: 48 h incubation
[14] = 24 h incubation, read-out: MIC SA 24 h
[15] = 48 h incubation, read-out: MIC SA 48 h
[16] = 24 h incubation, read-out: MIC SE 24 h
[17] = 48 h incubation, read-out: MIC SE 48 h
[18] = 24 h incubation, read-out: MIC EF 24 h
[19] = 48 h incubation, read-out: MIC EF 48 h
[20] = 24 h incubation, read-out: MIC EC 24 h
[21] = 48 h incubation, read-out: MIC EC 48 h
[22] = 24 h incubation, read-out: MIC PA 24 h
[23] = 48 h incubation, read-out: MIC PA 48 h
[24] = 336 h, 14 days incubation at 37 °C, read-out: MIC Mtb. 331/88 14 d
[25] = 504 h, 21 days incubation at 37 °C, read-out: MIC Mtb. 331/88 21 d
[26] = 330/88, 336 h, 14 days incubation at 37 °C, read-out: MIC M. avium 330/88 14 d
[27] = 330/88, 504 h, 21 days incubation at 37 °C, read-out: MIC M. avium 330/88 21 d
[28] = 235/80, 168 h, 7 days incubation at 37 °C, read-out: MIC M. kansasii 235/80 7 d
[29] = 235/80, 336 h, 14 days incubation at 37 °C, read-out: MIC M. kansasii 235/80 14 d
[30] = 235/80, 504 h, 21 days incubation at 37 °C, read-out: MIC M. kansasii 235/80 21 d
[31] = 168 h, 7 days incubation at 37 °C, read-out: MIC M. kansasii 6509/96 7 d
[32] = 336 h, 14 days incubation at 37 °C, read-out: MIC M. kansasii 6509/96 14 d
[33] = 504 h, 21 days incubation at 37 °C, read-out: MIC M. kansasii 6509/96 21 d

| SMILES | MIC [1, 14] | MIC [1, 15] | MIC [2, 16] | MIC [2, 17] | MIC [3, 18] | MIC [3, 19] | MIC [4, 20] | MIC [4, 21] | MIC [5, 22] | MIC [5, 23] | MIC [6, 24] | MIC [6, 25] | MIC [7, 26] | MIC [7, 27] | MIC [8, 28] | MIC [8, 29] | MIC [8, 30] | MIC [9, 31] | MIC [9, 32] | MIC [9, 33] | other results |
| --- | --- | --- | --- | --- | --- | --- | --- | --- | --- | --- | --- | --- | --- | --- | --- | --- | --- | --- | --- | --- | --- |
| CC(C)(C)c1ccc(O)c(C=Nc2ccc(C(=O)O)cc2)c1 [1j, 4-{[5-(Tert-butyl)-2-hydroxybenzylidene]amino}benzoic acid] | > 500 µM | > 500 µM | > 500 µM | > 500 µM | > 500 µM | > 500 µM | > 500 µM | > 500 µM | > 500 µM | > 500 µM | 250 µM (≈ 74.3 µg/mL) | 250 µM (≈ 74.3 µg/mL) | 1000 µM (≈ 297 µg/mL) | > 1000 µM | 125 µM (≈ 37.2 µg/mL) | 125 µM (≈ 37.2 µg/mL) | 250 µM (≈ 74.3 µg/mL) | 250 µM (≈ 74.3 µg/mL) | 250 µM (≈ 74.3 µg/mL) | 500 µM (≈ 149 µg/mL) | MIC (Candida krusei E28; 24 h, read-out: MIC CK 24 h): > 500 µM; MIC (Candida krusei E28; 48 h, read-out: MIC CK 48 h): > 500 µM; MIC (Candida glabrata 20/I; 24 h, read-out: MIC CG 24 h): > 500 µM; MIC (Candida glabrata 20/I; 48 h, read-out: MIC CG 48 h): > 500 µM; MIC (Trichosporon asahii 1188; 24 h, read-out: MIC TA 24 h): > 500 µM; MIC (Trichosporon asahii 1188; 48 h, read-out: MIC TA 48 h): > 500 µM; MIC ([10]; 24 h, read-out: MIC AF 24 h): > 500 µM; MIC ([10]; 48 h, read-out: MIC AF 48 h): > 500 µM; MIC ([11]; 24 h, read-out: MIC LC 24 h): > 500 µM; MIC ([11]; 48 h, read-out: MIC LC 48 h): > 500 µM; MIC ([12]; 72 h, read-out: MIC TI 72 h): > 500 µM; MIC ([12]; 120 h, read-out: MIC TI 120 h): > 500 µM; MIC KP 24 h [13]: >500 µM; MIC KP 48 h [13]: >500 µM |
| O=C(O)c1ccc(N=Cc2c(O)cccc2Cl)cc1 [1k, 4-[(2-Chloro-6-hydroxybenzylidene)amino]benzoic acid] | > 500 µM | > 500 µM | > 500 µM | > 500 µM | > 500 µM | > 500 µM | > 500 µM | > 500 µM | > 500 µM | > 500 µM | 250 µM (≈ 68.9 µg/mL) | 500 µM (≈ 138 µg/mL) | 500 µM (≈ 138 µg/mL) | 1000 µM (≈ 276 µg/mL) | 250 µM (≈ 68.9 µg/mL) | 500 µM (≈ 138 µg/mL) | 500 µM (≈ 138 µg/mL) | 250 µM (≈ 68.9 µg/mL) | 250 µM (≈ 68.9 µg/mL) | 500 µM (≈ 138 µg/mL) | MIC (Candida krusei E28; 24 h, read-out: MIC CK 24 h): 125 µM (≈ 34.5 µg/mL); MIC (Candida krusei E28; 48 h, read-out: MIC CK 48 h): 250 µM (≈ 68.9 µg/mL); MIC (Candida glabrata 20/I; 24 h, read-out: MIC CG 24 h): 125 µM (≈ 34.5 µg/mL); MIC (Candida glabrata 20/I; 48 h, read-out: MIC CG 48 h): 125 µM (≈ 34.5 µg/mL); MIC (Trichosporon asahii 1188; 24 h, read-out: MIC TA 24 h): 125 µM (≈ 34.5 µg/mL); MIC (Trichosporon asahii 1188; 48 h, read-out: MIC TA 48 h): > 125 µM; MIC ([10]; 24 h, read-out: MIC AF 24 h): > 125 µM; MIC ([10]; 48 h, read-out: MIC AF 48 h): > 125 µM; MIC ([11]; 24 h, read-out: MIC LC 24 h): > 125 µM; MIC ([11]; 48 h, read-out: MIC LC 48 h): > 125 µM; MIC ([12]; 72 h, read-out: MIC TI 72 h): 125 µM (≈ 34.5 µg/mL); MIC ([12]; 120 h, read-out: MIC TI 120 h): 125 µM (≈ 34.5 µg/mL); MIC KP 24 h [13]: >500 µM; MIC KP 48 h [13]: >500 µM |
